Key:
[1] = biological target: T1, D2 receptor (long isoform, D2L) (Rattus norvegicus, UniProt P61169); details: competition for [3H]methylspiperone binding
Protocol: (§1) A 2.4-kb Xba I-Xho I fragment containing the entire coding region and most of the D2 receptor cDNA was excised from the pBluescript clone and ligated into the corresponding restriction sites of the pEUK-C1 vector (Clontech, Palo Alto, Calif.) The resulting plasmid, pEUK-D2L, was then transfected into COS-7 cells using a modified CaPO4 precipitation method (Clontech). The cells were treated with 3 mM sodium butyrate after 48 hr and were harvested after 72 hr.

[2] = biological target: T1, D2 receptor (long isoform, D2L); experiment: biochemical; details: transfected COS-7 cell membranes
Protocol: as §1

T1 sequence (P61169 whole entry, canonical isoform): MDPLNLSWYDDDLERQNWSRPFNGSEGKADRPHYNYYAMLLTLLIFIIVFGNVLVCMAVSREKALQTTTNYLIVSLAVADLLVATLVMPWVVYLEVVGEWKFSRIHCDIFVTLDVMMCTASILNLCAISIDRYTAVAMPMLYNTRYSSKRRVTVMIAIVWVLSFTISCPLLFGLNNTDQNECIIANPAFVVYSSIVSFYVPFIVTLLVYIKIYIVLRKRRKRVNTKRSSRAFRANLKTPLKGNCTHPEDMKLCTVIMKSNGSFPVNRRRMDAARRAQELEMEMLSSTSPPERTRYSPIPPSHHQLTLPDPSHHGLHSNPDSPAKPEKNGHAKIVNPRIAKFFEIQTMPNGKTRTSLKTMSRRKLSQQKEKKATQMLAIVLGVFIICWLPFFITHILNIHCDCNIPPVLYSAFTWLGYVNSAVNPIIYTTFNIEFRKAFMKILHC

**Q.** `NCCc1ccc(O)c(O)c1` [Dopamine] was tested. Which “effect of guanine nucleotides on competition curve” value ([1]; data not shown) did it give?
**A.** not significantly affected by guanine nucleotides

**Q.** And the “Hill coefficient of competition curve” value ([1]; transfected COS-7 cell membranes)?
**A.** ≈ 1

**Q.** How did the Kd ([2]; affinity of [3H]methylspiperone saturation binding, mean ± SEM) turn out when `CN1CN(c2ccccc2)C2(CCN(CCCC(=O)c3ccc(F)cc3)CC2)C1=O` [[3H]methylspiperone] was run?
**A.** 0.0621 ± 0.0021 nM

**Q.** And the Kd ([2]; calculated KD of [3H]methylspiperone binding (Scatchard), one experiment representative of three (FIG. 2A))?
**A.** 0.0641 nM

From US5128254A (The United States of America as represented by the …, priority 1989, dated 1992)
